{"source": "ChEMBL document CHEMBL1201862", "about": "“PubChem BioAssay data set” (2004)", "test_in_all_cases": "DTP human tumour cell line panel, 48 h", "key": {"MDA-MB-231": {"test_system": "MDA-MB-231"}, "UO-31": {"test_system": "UO-31"}, "SK-MEL-28": {"test_system": "SK-MEL-28"}, "SNB-75": {"test_system": "SNB-75"}, "RPMI-8226": {"test_system": "RPMI-8226"}, "OVCAR-3": {"test_system": "OVCAR-3"}, "K562": {"test_system": "K562"}, "SR": {"test_system": "SR"}, "A549": {"test_system": "A549"}, "OVCAR-4": {"test_system": "OVCAR-4"}, "MDA-N": {"test_system": "MDA-N"}, "SK-MEL-5": {"test_system": "SK-MEL-5"}, "LOX IMVI": {"test_system": "LOX IMVI"}, "SK-OV-3": {"test_system": "SK-OV-3"}, "LXFL 529": {"test_system": "LXFL 529"}, "OVCAR-5": {"test_system": "OVCAR-5"}, "CCRF-CEM": {"test_system": "CCRF-CEM"}, "U-251": {"test_system": "U-251"}, "HT-29": {"test_system": "HT-29"}, "BT-549": {"test_system": "BT-549"}}, "note": "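Step 1: Grow cells in 96-well plates. Step 2: Expose to compound for 48 hours at 5 concentrations. Step 3: Interpolate endpoints linearly; if unreached, use highest concentration. GI50: concentration for 50% inhibition of growth.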 Active and inactive are the calls of the source. No stated cut-off is given here; in the data, active = GI50 up to about 1.1 µM and inactive = higher.", "data": [{"smiles": "CCCCOC(=O)N[C@H]1CCc2cc(OC)c(OC)c(OC)c2-c2ccc(SC)c(=O)cc21", "values": [{"measurement": "GI50", "setting": "MDA-MB-231", "result": "< 10 nM (active)"}, {"measurement": "GI50", "setting": "UO-31", "result": "< 23.1 nM (active)"}, {"measurement": "GI50", "setting": "SK-MEL-28", "result": "752 nM (active)"}, {"measurement": "GI50", "setting": "SNB-75", "result": "< 10.9 nM (active)"}, {"measurement": "GI50", "setting": "RPMI-8226", "result": "< 10 nM (active)"}, {"measurement": "GI50", "setting": "OVCAR-3", "result": "< 10 nM (active)"}, {"measurement": "GI50", "setting": "K562", "result": "< 36.9 nM (active)"}, {"measurement": "GI50", "setting": "SR", "result": "< 56.8 nM (active)"}, {"measurement": "GI50", "setting": "A549", "result": "< 10 nM (active)"}, {"measurement": "GI50", "setting": "OVCAR-4", "result": "2200 nM (inactive)"}, {"measurement": "GI50", "setting": "MDA-N", "result": "< 10 nM (active)"}, {"measurement": "GI50", "setting": "SK-MEL-5", "result": "< 10 nM (active)"}, {"measurement": "GI50", "setting": "LOX IMVI", "result": "< 10 nM (active)"}, {"measurement": "GI50", "setting": "SK-OV-3", "result": "30.3 nM (active)"}, {"measurement": "GI50", "setting": "LXFL 529", "result": "< 10 nM (active)"}, {"measurement": "GI50", "setting": "OVCAR-5", "result": "147 nM (active)"}, {"measurement": "GI50", "setting": "CCRF-CEM", "result": "< 10 nM (active)"}, {"measurement": "GI50", "setting": "U-251", "result": "< 10 nM (active)"}, {"measurement": "GI50", "setting": "HT-29", "result": "< 10 nM (active)"}]}, {"smiles": "COc1ccccc1NC(=O)C1=C(C)NC(C)=C(C(=O)Nc2ccccc2OC)C1c1ccco1", "values": [{"measurement": "GI50", "setting": "MDA-MB-231", "result": "23600 nM (inactive)"}, {"measurement": "GI50", "setting": "UO-31", "result": "9270 nM (inactive)"}, {"measurement": "GI50", "setting": "SK-MEL-28", "result": "19700 nM (inactive)"}, {"measurement": "GI50", "setting": "SNB-75", "result": "3370 nM (inactive)"}, {"measurement": "GI50", "setting": "BT-549", "result": "8490 nM (inactive)"}, {"measurement": "GI50", "setting": "RPMI-8226", "result": "4520 nM (inactive)"}, {"measurement": "GI50", "setting": "OVCAR-3", "result": "2910 nM (inactive)"}, {"measurement": "GI50", "setting": "K562", "result": "5190 nM (inactive)"}, {"measurement": "GI50", "setting": "SR", "result": "1340 nM (inactive)"}, {"measurement": "GI50", "setting": "A549", "result": "5180 nM (inactive)"}, {"measurement": "GI50", "setting": "OVCAR-4", "result": "8570 nM (inactive)"}, {"measurement": "GI50", "setting": "MDA-N", "result": "2740 nM (inactive)"}, {"measurement": "GI50", "setting": "SK-MEL-5", "result": "3020 nM (inactive)"}, {"measurement": "GI50", "setting": "LOX IMVI", "result": "8070 nM (inactive)"}, {"measurement": "GI50", "setting": "SK-OV-3", "result": "7010 nM (inactive)"}, {"measurement": "GI50", "setting": "LXFL 529", "result": "5150 nM (inactive)"}, {"measurement": "GI50", "setting": "OVCAR-5", "result": "39800 nM (inactive)"}, {"measurement": "GI50", "setting": "CCRF-CEM", "result": "5060 nM (inactive)"}, {"measurement": "GI50", "setting": "U-251", "result": "5860 nM (inactive)"}, {"measurement": "GI50", "setting": "HT-29", "result": "3920 nM (inactive)"}]}, {"smiles": "C=C(C)[C@H]1Cc2c(ccc3c2O[C@@H]2COc4cc(OC)c(OC)cc4[C@@H]2C3=O)O1", "note": "[ROTENONE]", "values": [{"measurement": "GI50", "setting": "MDA-MB-231", "result": "1020 nM (active)"}, {"measurement": "GI50", "setting": "UO-31", "result": "131 nM (active)"}, {"measurement": "GI50", "setting": "SK-MEL-28", "result": "162 nM (active)"}, {"measurement": "GI50", "setting": "SNB-75", "result": "152 nM (active)"}, {"measurement": "GI50", "setting": "BT-549", "result": "164 nM (active)"}, {"measurement": "GI50", "setting": "RPMI-8226", "result": "57.5 nM (active)"}, {"measurement": "GI50", "setting": "OVCAR-3", "result": "56.6 nM (active)"}, {"measurement": "GI50", "setting": "K562", "result": "92.9 nM (active)"}, {"measurement": "GI50", "setting": "SR", "result": "617 nM (active)"}, {"measurement": "GI50", "setting": "A549", "result": "78.5 nM (active)"}, {"measurement": "GI50", "setting": "OVCAR-4", "result": "577 nM (active)"}, {"measurement": "GI50", "setting": "MDA-N", "result": "42.3 nM (active)"}, {"measurement": "GI50", "setting": "SK-MEL-5", "result": "20.3 nM (active)"}, {"measurement": "GI50", "setting": "LOX IMVI", "result": "62.4 nM (active)"}, {"measurement": "GI50", "setting": "SK-OV-3", "result": "206 nM (active)"}, {"measurement": "GI50", "setting": "LXFL 529", "result": "36.8 nM (active)"}, {"measurement": "GI50", "setting": "OVCAR-5", "result": "2550 nM (inactive)"}, {"measurement": "GI50", "setting": "CCRF-CEM", "result": "951 nM (active)"}, {"measurement": "GI50", "setting": "U-251", "result": "224 nM (active)"}, {"measurement": "GI50", "setting": "HT-29", "result": "127 nM (active)"}]}, {"smiles": "Cc1c(/N=C\\c2ccc(N(CCC#N)CCC#N)cc2)c(=O)n(-c2ccccc2)n1C", "values": [{"measurement": "GI50", "setting": "MDA-MB-231", "result": "77400 nM (inactive)"}, {"measurement": "GI50", "setting": "UO-31", "result": "> 100000 nM (inactive)"}, {"measurement": "GI50", "setting": "SK-MEL-28", "result": "> 100000 nM (inactive)"}, {"measurement": "GI50", "setting": "SNB-75", "result": "20700 nM (inactive)"}, {"measurement": "GI50", "setting": "BT-549", "result": "> 100000 nM (inactive)"}, {"measurement": "GI50", "setting": "RPMI-8226", "result": "> 100000 nM (inactive)"}, {"measurement": "GI50", "setting": "OVCAR-3", "result": "> 90600 nM (inactive)"}, {"measurement": "GI50", "setting": "K562", "result": "> 100000 nM (inactive)"}, {"measurement": "GI50", "setting": "SR", "result": "> 100000 nM (inactive)"}, {"measurement": "GI50", "setting": "A549", "result": "82600 nM (inactive)"}, {"measurement": "GI50", "setting": "OVCAR-4", "result": "> 100000 nM (inactive)"}, {"measurement": "GI50", "setting": "MDA-N", "result": "> 100000 nM (inactive)"}, {"measurement": "GI50", "setting": "SK-MEL-5", "result": "> 100000 nM (inactive)"}, {"measurement": "GI50", "setting": "LOX IMVI", "result": "> 100000 nM (inactive)"}, {"measurement": "GI50", "setting": "SK-OV-3", "result": "> 100000 nM (inactive)"}, {"measurement": "GI50", "setting": "LXFL 529", "result": "> 100000 nM (inactive)"}, {"measurement": "GI50", "setting": "OVCAR-5", "result": "> 100000 nM (inactive)"}, {"measurement": "GI50", "setting": "CCRF-CEM", "result": "> 100000 nM (inactive)"}, {"measurement": "GI50", "setting": "U-251", "result": "39200 nM (inactive)"}, {"measurement": "GI50", "setting": "HT-29", "result": "> 100000 nM (inactive)"}]}, {"smiles": "Cc1cc(/C=C/c2cc[n+](C)c3ccccc23)c(O)c2ncccc12", "values": [{"measurement": "GI50", "setting": "UO-31", "result": "6670 nM (inactive)"}, {"measurement": "GI50", "setting": "SK-MEL-28", "result": "2160 nM (inactive)"}, {"measurement": "GI50", "setting": "SNB-75", "result": "5160 nM (inactive)"}, {"measurement": "GI50", "setting": "RPMI-8226", "result": "710 nM (active)"}, {"measurement": "GI50", "setting": "OVCAR-3", "result": "288 nM (active)"}, {"measurement": "GI50", "setting": "K562", "result": "2460 nM (inactive)"}, {"measurement": "GI50", "setting": "SR", "result": "379 nM (active)"}, {"measurement": "GI50", "setting": "A549", "result": "2070 nM (inactive)"}, {"measurement": "GI50", "setting": "OVCAR-4", "result": "7940 nM (inactive)"}, {"measurement": "GI50", "setting": "SK-MEL-5", "result": "1020 nM (active)"}, {"measurement": "GI50", "setting": "LOX IMVI", "result": "1350 nM (inactive)"}, {"measurement": "GI50", "setting": "SK-OV-3", "result": "2400 nM (inactive)"}, {"measurement": "GI50", "setting": "LXFL 529", "result": "156 nM (active)"}, {"measurement": "GI50", "setting": "OVCAR-5", "result": "3270 nM (inactive)"}, {"measurement": "GI50", "setting": "CCRF-CEM", "result": "181 nM (active)"}, {"measurement": "GI50", "setting": "U-251", "result": "1230 nM (inactive)"}, {"measurement": "GI50", "setting": "HT-29", "result": "3760 nM (inactive)"}]}]}
